Experimental data from US8628792B2, “Drug cores for sustained release of therapeutic agents” (Mati Therapeutics, Inc., priority 2007, dated 2014).
Several values for one entry are separate records, joined by “and”; a condition that tells them apart may be missing. Equal entries are not always repeated. One block for each compound: values may come before it.

Legend:
[1] = topical drop to the eye; cited from earlier work
[2] = cited from earlier work
[3] = In vitro elution study of drug cores (drug in silicone matrix in polyimide tube) in 7.4 pH buffer, HPLC; format: physicochemical; conditions: for Duration: calculated time when ~10% of drug remains
Excerpt: Drug cores as described above have been fabricated with different cross sectional sizes of 0.006 inches, 0.012 inches, and 0.025 inches, and drug concentrations of 5%, 10% and 20% in a silicone matrix. Theses drug cores can be made with a Syringe Tube and Cartridge Assembly, Mixing Latanoprost with Silicone, and Injecting the mixture into a polyimide tube which is cut to desired lengths and sealed. The length of the drug cores were approximately 0.80 to 0.95 mm, which for a diameter of 0.012 inches (0.32 mm) corresponds to total Latanoprost content in the drug cores of approximately 3.5 μg, 7 μg and 14 μg for concentrations of 5%, 10% and 20%, respectively.
Mix Latanoprost with Silicone. Prepare Latanoprost. Latanoprost is provided as a 1% solution in methylacetate. Place the appropriate amount of solution into a dish and using a nitrogen stream, evaporate the solution until only the Latanoprost remains. Place the dish with the Latanoprost oil under vacuum for 30 minutes. Combine Latanoprost with silicone. Prepare three different concentrations of Latanoprost (5%, 10% and 20%) in silicone Nusil 6385 and inject it into tubing of different diameters (0.006 in, 0.012 in and 0.025 inches) to generate 3×3 matrixes. The percent of Latanoprost to silicone is determined by the total weight of the drug matrix. Calculation: Weight of Latanoprost/(weight of Latanoprost+weight of silicone)×100=percent drug.
Inject tube. 1. Insert Cartridge and Polyimide tubes assembly into 1 ml syringe. 2. Add one drop of catalyst, (MED-6385 Curing Agent) in the syringe. 3. Force excess catalyst out of the polyimide tube with clean air. 4. Fill syringe with silicone drug matrix. 5, Inject tube with drug matrix until the tube is filled or the syringe plunger becomes too difficult to push. 6. Close off the distal end of the polyimide tube and maintain pressure until the silicone begins to solidify. 7. Allow to cure at room temperature for 12 hours. 8. Place under vacuum for 30 minutes. 9. Place tube in right size trim fixture (prepared in house to hold different size tubing) and cut drug inserts to length (0.80-0.95 mm).
Testing. Elution study (in vitro). 1. Place 10 plugs of same size and same concentration per centrifuge tube and add 1.5 ml of 7.4 pH buffer solution to it. 2. Change the solvent with fresh 7.4 pH buffer after appropriate time. 3. Take HPLC of the elutant at 210 nm with PDA detector 2996 using Sunfire C18, 3 mm×10 mm column (Waters Corporation, Milford, Mass.). Acetonitrile and water mixture is used for gradient elution. Calibration was done in house before and after each analysis, using in-house standards with precisely weighed concentration of Latanoprost. 4. Calculate the amount of drug release per day per device for different size tubings having different concentrations of Latanoprost. 5. Plot elution rate vs area and concentration for day 1 and day 14.

[4] = Latanoprost content per 1 mm section divided from a filled precursor tube; format: physicochemical
Procedure: (squares) unexpectedly produced a more uniform distribution of therapeutic agent latanoprost in the silicone matrix, after curing, along the entire length of the 10 cm precursor sheath, which was subsequently divided into 1 mm sections, and the latanoprost content of each sections (drug insert) determined. Extrusions carried out at room temperature (circles) and at 40° C. […] The results are significant in terms of manufacturing medically useful devices, as it is desirable to maintain a uniform content of the therapeutic agent among a plurality of drug inserts manufactured by this method.
Measurements of average latanoprost content (μg) per 1 mm section (core) divided (razor blade) from a filled precursor tube are as shown: […]

[5] = test system: IOP; conditions: cited from earlier work
[6] = Inclusion (droplet) diameter in silicone/latanoprost cores, scanning electron micrographs; format: physicochemical; conditions: for average inclusion diameter and standard deviation: latanoprost-silicone mixture, n=40 inclusion; for average diameter of latanoprost droplets: silicone matrix
Procedure: A two part silicone formulation (MED6385, Nusil Technologies) was used in the preparation of a composite resin containing latanoprost, which was used to fill a section of polyimide sheathing. The sheathing containing the polymerized silicone incorporates discrete latanoprost domains, existing in the form of droplets of less than about 25 μm maximum diameter, within the matrix. Several experiments were conducted.
Part A of the MED6385 silicone formulation was mixed with 0.43 μL of Part B, the tin catalyst, using syringes, to bring about partial coagulation of the polymer over 30 minutes. Then, 37 mg of that material was mixed with a premixed solution of 0.144 additional catalyst and 13 mg latanoprost, and that mixture could be further mixed by sonication with an ultrasonic probe. The resulting mixture was transferred to a syringe needle connected to a HP7x syringe adapter, which is connected to an EFD pump, which is in turn connected to a compressed air system and the delivery pressure set to 40 psi. The silicone-latanoprost mixture is then extruded down the length (10 cm) of polyimide tubing (IWG High Performance Conductors, Inc.). When the viscous mixture reached the bottom of polyimide tubing, clamps were applied at the bottom of the tubing and at the top connection with the syringe adapter, then pressure is released and the tubing section removed. The clamped section of tubing was placed in a humidity chamber (Thunder Scientific) for curing at 40° C. and 80% relative humidity (RH) for approximately 16-24 hrs.
Scanning electron micrographs of the sheath containing the cured matrix, i.e., the filled precursor sheath, are shown in FIG. 15A-D at the magnifications indicated. The inserts were sectioned cryogenically. FIGS. 15A and 15B, respectively, show the insert cores wherein the extrusion was carried at 40° C. (A) or 25° C. (B).
The temperature of the mixture, and of the associated apparatus involved in filling the polyimide sheath was held at various temperatures during the injection process. Among the temperatures used were a slightly elevated temperature (40° C.), approximate room temperature (25° C.), and subambient temperatures, such as 0° C., −5° C., and −25° C. The subambient injection procedures are provided in this Example.
Scanning electron micrographs of the sheath containing the cured matrix, i.e., the filled precursor sheath, are shown in FIG. 15A-D at the magnifications indicated. The inserts were sectioned cryogenically. FIGS. 15C and 15D show the results of extrusions carried out at 0° C. and −25° C. respectively. They can be compared with FIGS. 15A and 15B that were carried out at ambient temperature (25° C.) or above (40° C.).
Measurements of average inclusion diameters, and standard deviation thereof, are as shown: […]

[7] = Bimatoprost bulk sample elution, normalized to ng per device per day; format: physicochemical; conditions: for zero order elution rate: about 90 days
Procedure: Bulk samples of 1% Bimatoprost having a known diameter of 0.076 cm (0.76 mm) were prepared. The height of each sample was determined from the weight and known diameter of the sample.
The calculated heights ranged from 0.33 cm to 0.42 cm. The exposed surface area on each end of each bulk sample was approximately 0.045 cm2, providing volumes of 0.019 cm3 and 0.015 cm3 for the 0.42 and 0.33 cm samples, respectively. The exposed an exposed surface area of samples calculated from the height and diameter without a drug sheath was approximately 0.1 cm2. Three formulations were evaluated: 1) silicone 4011, 1% Bimatoprost, 0% surfactant; 2) silicone 4011, 1% Bimatoprost, approximately 11% surfactant; and 3) silicone 4011, 1% Bimatoprost, approximately 33% surfactant. The elution data measured for the bulk samples with formulation 1, 2 and 3 were normalized to ng per device per day (ng/device/day) assuming a surface area of the bulk device is 0.1 cm2 and the surface area of the clinical device is 0.00078 cm2 (0.3 mm diameter). […] The normalized elution profile is about 10 ng per day. […] Similar formulations can be used with drug core sheaths and a shaped exposed surface of the core exposed to the tear to increase the exposed surface area as described above and deliver the drug in therapeutic amounts over an extended period.

[8] = formulations A-D (silicone 4011 or 6385, 10-20% Latanoprost, 0-20% NaCl), non-sterile cores

Structure (SMILES): CC(C)(C)NC[C@H](O)COc1nsnc1N1CCOCC1 [Timolol]
bioavailability [1]: 30-50%

Structure (SMILES): O=C1OC2(c3ccc(O)cc3Oc3cc(O)ccc32)c2ccccc21 [Fluorescein]
solubility in water [2]: soluble in water

elution rate ([3]; 7 μg core (10%, 0.32 mm diameter, 0.95 mm long), 10 to 20 days, compared with 14 μg core): comparable rates
elution rate ([3]; 14 μg core (20%, 0.32 mm diameter, 0.95 mm long), from about 10 to 40 days): approximately 100 ng per day
relative elution rate ([3]; 20% latanoprost in 6380 material with 2.5% crosslinker, 1, 4, 7 and 14 days, vs 6385 material): slightly lower elution rate
relative elution rate ([3]; 20% latanoprost in 6380 material with 5% crosslinker, all time points): lowest elution rate
relative elution rate ([3]; 20% latanoprost in 6385 material with 2.5% crosslinker, 1, 4, 7 and 14 days): highest elution rates
relative elution rate ([3]; 6385 material with 5% latanoprost, all time periods): lowest rate
elution rate ([3]; 6385 material with 5, 10, 20, 30 and 40% latanoprost, all samples, by 7 days): below 500 ng per day
elution rate, both ends open/2 compared with one end open ([3]; 6385 material with 20% latanoprost, all time points): very close to the one end open data
relative elution rate ([3]; 6385 material with 40% latanoprost, all time periods): highest rate
initial elution of Latanoprost from plug ([3]; buffered saline elution system, initial): approximately 500 ng per day
elution rate after dropping off ([3]; buffered saline elution system, within 7-14 days, depending on initial concentration): approximately 100 ng/day
Latanoprost released (elution rate) ([3]; day 1, 0.006 inch diameter core, exposed surface area approx 0.02 mm2): about 200 ng
Latanoprost released (elution rate) ([3]; day 1, 0.012 inch diameter core, exposed surface area approx 0.07 mm2): ~400 ng
Latanoprost released (elution rate) ([3]; day 1, 0.025 inch diameter core, exposed surface area approx 0.32 mm2): ~1200 ng
Latanoprost released (elution rate) ([3]; day 14, 0.006 inch diameter core, approx 0.02 mm2): about 25 ng
Latanoprost released (elution rate) ([3]; day 14, 0.012 inch (0.32 mm) diameter core, approx 0.07 mm2): ~100 ng
Latanoprost released (elution rate) ([3]; day 14, 0.025 inch diameter core, approx 0.32 mm2): ~300 ng
elution rate ([3]; e-beam sterile core, 20% latanoprost in 6385, first day): about 450 ng/day
elution rate by 3 weeks (21 days) [3, 8]: about 100 ng per device per day
initial elution rate [3, 8]: approximately 300 ng per device per day
elution rate ([3]; non-sterile core, 20% latanoprost in 6385, 14 day): about 150 ng/day
elution rate ([3]; non-sterile core, 20% latanoprost in 6385, days 4 and 7): about 400 ng/day
elution rate ([3]; non-sterile core, 20% latanoprost in 6385, first day): ~1400 ng/day
elution rate ([3]; sterile core, 20% latanoprost in 6385, 14 day): 200 ng/day
elution rate ([3]; sterile core, 20% latanoprost in 6385, days 4 and 7): about 400 ng/day
Duration ([3]; total Latanoprost content 3.5 μg): ~25 days
Duration ([3]; total Latanoprost content 7 μg): ~45 days
Duration ([3]; total Latanoprost content 14 μg): ~100 days
average latanoprost content per 1 mm section (Average±SD) ([4]; Cold extrusion (−5° C.)): 20.9 ± 0.5 µg
average latanoprost content per 1 mm section (Average±SD) ([4]; Room temperature (22° C.) extrusion): 20.2 ± 1.9 µg
average inclusion diameter and standard deviation ([6]; Cold extrusion (−5° C.)): 0.006±0.002 mm
maximum diameter of latanoprost droplets ([6]; MED6385 matrix, high pressure filling): less than 25 μm
average inclusion diameter and standard deviation ([6]; Room temp (22° C.) extrusion): 0.019+0.019 mm and 0.019±0.019 mm
average diameter of latanoprost droplets ([6]; cold extrusion (−5° C.)): 6 μm
average diameter of latanoprost droplets ([6]; extrusion at room temperature): 19 μm
Structure (SMILES): CC(C)OC(=O)CCC/C=C\C[C@@H]1[C@@H](CC[C@@H](O)CCc2ccccc2)[C@H](O)C[C@@H]1O [Latanoprost]
duration of IOP lowering ([5]; about 200 ng of drug remaining on the eye after a drop of Xalatan): at least 24 hours
IOP reduction relative to that of the 50 μg/mL QD dose ([5]; lowest doses of 12.5 μg/mL QD or 15 μg/mL BID): 60-75%

elution rate ([3]; 20% bimatoprost in NuSil 6385, 0% salt, 1 day): about 100 ng per day
relative elution rate ([3]; 20% bimatoprost in NuSil 6385, 0% salt, all time periods to two weeks): lowest elution rate
elution rate ([3]; 20% bimatoprost in NuSil 6385, 10% salt, 1 day): 400 ng per day
elution rate ([3]; 20% bimatoprost in NuSil 6385, 20% salt, 1 day): about 750 ng/day
relative elution rate ([3]; 20% bimatoprost in NuSil 6385, 20% salt, all time periods to two weeks): highest elution rate
zero order elution rate ([7]; scaled to 0.76 mm exposed diameter (0.0045 cm2)): about 60 ng per day
zero order elution rate ([7]; scaled to exposed surface area about 0.0078 cm2): about 100 ng per day
normalized elution profile ([7]; silicone 4011, 1% Bimatoprost, 0/11/33% surfactant bulk samples, normalized to 0.3 mm exposed surface diameter (0.00078 cm2)): about 10 ng per day
Structure (SMILES): CCNC(=O)CCC/C=C\C[C@@H]1[C@@H](/C=C/[C@@H](O)CCc2ccccc2)[C@H](O)C[C@@H]1O [Bimatoprost]
release kinetics ([7]; from about ten days to about 90 days, each of the formulations 1-3): approximately zero order release kinetics
